Literature values as cited in patent publication US11730619B2, “Systems and methods for determining failure of intragastric devices” (RESHAPE LIFESCIENCES INC., priority 2015, dated 2023).
Where a name gives a salt, the structure may show the parent alone. Read-outs that look alike come from different tables or passages of the source. Values belong to the compound of their own block, whether it stands above or below them.

Legend:
[1] = for Solubility: solvent not given
[2] = cell wraps: Generally well-tolerated in patients; Merck Index
[3] = Meng et al. 2013
[4] = pH 3

Compound: Cc1cc2nc3c(=O)[nH]c(=O)nc-3n(C)c2cc1C [Lumiflavine]
Solubility [1]: poor solubility
Solubility in water ([1]; water, Merck Index): Very sparingly soluble in water

Compound: O=C(O)c1cc(O)c2c(c1)[C@H]([C@H]1c3cc(C(=O)O)cc(O)c3C(=O)c3c(O[C@@H]4O[C@H](CO)[C@@H](O)[C@H](O)[C@H]4O)cccc31)c1cccc(O[C@@H]3O[C@H](CO)[C@@H](O)[C@H](O)[C@H]3O)c1C2=O [Sennoside A]
Solubility in water ([1]; water, Merck Index): insoluble in water.

Compound: O=C(O)c1cc(O)c2c(c1)[C@@H]([C@H]1c3cc(C(=O)O)cc(O)c3C(=O)c3c(O[C@@H]4O[C@H](CO)[C@@H](O)[C@H](O)[C@H]4O)cccc31)c1cccc(O[C@@H]3O[C@H](CO)[C@@H](O)[C@H](O)[C@H]3O)c1C2=O [Sennoside B]
Solubility in water relative to Sennoside A ([1]; cell wraps: more soluble in water than Sennoside A, Merck): Sennoside B is more

Compound: Nc1nc(N)c2nc(-c3ccccc3)c(N)nc2n1 [Triamterene]
Tolerability in patients [2]: Generally well-
Solubility: parts water in which 1 part is soluble ([1]; 1 part soluble in 1000 parts water, Merck Index): 1 part soluble in 1000 parts water

Compound: Cc1cc2nc3c(=O)[nH]c(=O)nc-3n(C[C@H](O)[C@H](O)[C@H](O)CO)c2cc1C [B vitamins (e.g. Riboflavin), Riboflavin]
Solubility in water ([1]; Merck Index): Solubility: 1 g in 3 L g in 3 L water

Compound: CN(C)CCC=C1c2ccccc2CCc2ccccc21 [Amitriptyline Hydrochloride]
Solubility in water ([1]; water, Merck Index): Salt is freely soluble in
LD50 (rats) (rat; rats, second of two values, Merck Index): 380 mg/kg

Compound: O=C1/C(=C2\Nc3ccc(S(=O)(=O)[O-])cc3C2=O)Nc2ccc(S(=O)(=O)[O-])cc21.[Na+].[Na+] [Indigo carmine]
LD50 (rat, oral) (rat; rat, oral, Baker MSDS sheet): 2000 mg/kg (Baker MSDS sheet)

Now from value to compound, other results behind:

Water solubility ([1]; @ 20° C., Merck Index): Water soluble 2.5 g/100 g/100 mL
Compound: COc1ccccc1OCC(O)COC(N)=O (centres unmarked) [Methocarbamol]
Tolerability in patients [2]: Generally well-

Conversion on passage through the gastrointestinal tract [3]: reduced to leukomethylene blue
Compound: CN(C)c1ccc2nc3ccc(=[N+](C)C)cc-3sc2c1 [methylene blue]

Excretion in urine ([3]; stabilized in the urine): excreted mostly unaltered
Compound: CN(C)c1ccc2c(c1)Sc1cc(N(C)C)ccc1N2 [Leukomethylene blue]

Solubility in hot water ([1]; hot water, Merck Index): Sparingly soluble in hot water
Solubility [1]: poor solubility
Compound: Cc1cc2nc3[nH]c(=O)[nH]c(=O)c3nc2cc1C [Lumichrome]

pH range of stability [4]: Stable between pH 3
Compound: Betalain [Betalain (including betanin)]
